Test results taken from patent publication US10669268B2, “Bicyclic derivatives” (Hoffmann-La Roche Inc., priority 2012, dated 2020).

Target: ATX (human His-tagged) (Homo sapiens (Human), UniProt Q13822)
Assay: Human ATX enzyme inhibition assay (fluorescence quenching, MR121 substrate)
Format: biochemical
Conditions: 30 nM ATX, 1 μM MR121 substrate, 30° C., pH 8.0
Method in brief: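 Fluorescence-quenching assay using MR121 substrate at 1 μM final, incubated 15 min at 30 °C. Buffer was 50 mM Tris-HCl pH 8.0 with 140 mM NaCl, 5 mM KCl, 1 mM CaCl2, 1 mM MgCl2 and 0.01% Triton X-100.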

| SMILES | IC50 [nM] |
| --- | --- |
| CS(=O)(=O)c1cc(Cl)cc(COC(=O)N2C[C@@H]3CN(C(=O)c4ccc5[nH]nnc5c4)C[C@@H]3C2)c1 [Example 4.04, (3aS,6aR)-5-(1H-benzotriazole-5-carbonyl)-hexahydro-pyrrolo[3,4-c]pyrrole-2-carboxylic acid 3-chloro-5-methanesulfonyl-benzyl ester] | 46 |
| CS(=O)(=O)c1cc(COC(=O)N2CC[C@@H]3CN(C(=O)c4ccc5[nH]nnc5c4)C[C@@H]3CC2)cc(C(F)(F)F)c1 [Example 4.05, (3aS,8aR)-2-(1H-benzotriazole-5-carbonyl)-octahydro-pyrrolo[3,4-d]azepine-6-carboxylic acid 3-methanesulfonyl-5-trifluoromethyl-benzyl ester] | 11 |
| CS(=O)(=O)c1cc(Cl)cc(COC(=O)N2CC[C@@H]3CN(C(=O)c4ccc5[nH]nnc5c4)C[C@@H]3CC2)c1 [Example 4.06, (3aS,8aR)-2-(1H-benzotriazole-5-carbonyl)-octahydro-pyrrolo[3,4-d]azepine-6-carboxylic acid 3-chloro-5-methanesulfonyl-benzyl ester] | 12 |
| CS(=O)(=O)c1cc(COC(=O)N2C[C@@H]3CN(C(=O)c4ccc5[nH]nnc5c4)C[C@@H]3C2)cc(C(F)(F)F)c1 [Example 4.07, (3aS,6aR)-5-(1H-benzotriazole-5-carbonyl)-hexahydro-pyrrolo[3,4-c]pyrrole-2-carboxylic acid 3-methanesulfonyl-5-trifluoromethyl-benzyl ester] | 16 |
| CS(=O)(=O)c1cc(Cl)cc(COC(=O)N2C[C@@H]3CN(C(=O)c4ccc5[nH]nnc5c4)CC[C@H]3C2)c1 [Example 4.09, (3aS,7aR)-5-(1H-benzotriazole-5-carbonyl)-octahydro-pyrrolo[3,4-c]pyridine-2-carboxylic acid 3-chloro-5-methanesulfonyl-benzyl ester] | 49 |
| O=C(OC1(c2cccc(Cl)c2)CC1)N1C[C@@H]2CN(C(=O)c3ccc4[nH]nnc4c3)C[C@@H]2C1 [Example 4.12, (3aS,6aR)-5-(1H-benzotriazole-5-carbonyl)-hexahydro-pyrrolo[3,4-c]pyrrole-2-carboxylic acid 1-(3-chloro-phenyl)-cyclopropyl ester] | 1480 |
| O=C(OCC1C2CCCCC21)N1C[C@@H]2CN(C(=O)c3ccc4[nH]nnc4c3)C[C@@H]2C1 (stereo partly drawn) [Example 4.13, (3aS,6aR)-5-(1H-benzotriazole-5-carbonyl)-hexahydro-pyrrolo[3,4-c]pyrrole-2-carboxylic acid bicyclo[4.1.0]hept-7-ylmethyl ester] | 2910 |
| O=C(OCC1C2CC3CC(C2)CC1C3)N1C[C@@H]2CN(C(=O)c3ccc4[nH]nnc4c3)C[C@@H]2C1 (stereo partly drawn) [Example 4.14, (3aS,6aR)-5-(1H-benzotriazole-5-carbonyl)-hexahydro-pyrrolo[3,4-c]pyrrole-2-carboxylic acid adamantan-2-ylmethyl ester] | 4190 |
| O=C(OCCC1C2CC3CC(C2)CC1C3)N1C[C@@H]2CN(C(=O)c3ccc4[nH]nnc4c3)C[C@@H]2C1 (stereo partly drawn) [Example 4.16, (3aS,6aR)-5-(1H-benzotriazole-5-carbonyl)-hexahydro-pyrrolo[3,4-c]pyrrole-2-carboxylic acid 2-adamantan-2-yl-ethyl ester] | 398 |
| O=C(OCCC12CC3CC(CC(C3)C1)C2)N1C[C@@H]2CN(C(=O)c3ccc4[nH]nnc4c3)C[C@@H]2C1 [Example 4.17, (3aS,6aR)-5-(1H-benzotriazole-5-carbonyl)-hexahydro-pyrrolo[3,4-c]pyrrole-2-carboxylic acid 2-adamantan-1-yl-ethyl ester] | 799 |
| O=C(OCC12CC3CC(CC(C3)C1)C2)N1C[C@@H]2CN(C(=O)c3ccc4[nH]nnc4c3)C[C@@H]2C1 [Example 4.18, (3aS,6aR)-5-(1H-benzotriazole-5-carbonyl)-hexahydro-pyrrolo[3,4-c]pyrrole-2-carboxylic acid adamantan-1-ylmethyl ester] | 5620 |
| O=C(OCC1CCCCC1)N1C[C@@H]2CN(C(=O)c3ccc4[nH]nnc4c3)C[C@@H]2C1 [Example 4.19, (3aS,6aR)-5-(1H-benzotriazole-5-carbonyl)-hexahydro-pyrrolo[3,4-c]pyrrole-2-carboxylic acid cyclohexyl methyl ester] | 1580 |
| COC(c1cccc(COC(=O)N2C[C@@H]3CN(C(=O)c4ccc5[nH]nnc5c4)C[C@@H]3C2)c1)C(F)(F)F (stereo partly drawn) [Example 4.20, cis-5-(1H-benzotriazole-5-carbonyl)-hexahydro-pyrrolo[3,4-c]pyrrole-2-carboxylic acid 3-(2,2,2-trifluoro-1-methoxy-ethyl)-benzyl ester] | 722 |
| O=C(OCc1cccc(C(O)C(F)(F)F)c1)N1C[C@@H]2CN(C(=O)c3ccc4[nH]nnc4c3)C[C@@H]2C1 (stereo partly drawn) [Example 4.21, cis-5-(1H-benzotriazole-5-carbonyl)-hexahydro-pyrrolo[3,4-c]pyrrole-2-carboxylic acid 3-(2,2,2-trifluoro-1-hydroxy-ethyl)-benzyl ester] | 3480 |
| O=C(OCCC1CCCCC1)N1C[C@@H]2CN(C(=O)c3ccc4[nH]nnc4c3)C[C@@H]2C1 [Example 4.22, (3aR,6aS)-2-cyclohexylethyl 5-(1H-benzo[d][1,2,3]triazole-5-carbonyl)hexahydropyrrolo[3,4-c]pyrrole-2(1H)-carboxylate] | 1380 |
| O=C(OCc1cc(F)cc(OC(F)(F)F)c1)N1C[C@@H]2CN(C(=O)c3ccc4[nH]nnc4c3)C[C@@H]2C1 [Example 4.23, (3aS,6aR)-5-(1H-benzotriazole-5-carbonyl)-hexahydro-pyrrolo[3,4-c]pyrrole-2-carboxylic acid 3-fluoro-5-trifluoromethoxy-benzyl ester] | 17 |
| N#Cc1cc(Cl)cc(COC(=O)N2C[C@@H]3CN(C(=O)c4ccc5[nH]nnc5c4)C[C@@H]3C2)c1 [Example 4.24, (3aR,6aS)-3-chloro-5-cyanobenzyl 5-(1H-benzo[d][1,2,3]triazole-5-carbonyl)hexahydropyrrolo[3,4-c]pyrrole-2(1H)-carboxylate] | 56 |
| O=C(OCc1cccc(OC(F)(F)F)c1)N1C[C@@H]2CN(C(=O)c3ccc4[nH]nnc4c3)C[C@@H]2C1 [Example 4.25, (3aS,6aR)-5-(1H-benzotriazole-5-carbonyl)-hexahydro-pyrrolo[3,4-c]pyrrole-2-carboxylic acid 3-trifluoromethoxy-benzyl ester] | 122 |
| O=C(OCc1cc(F)cc(C(F)(F)F)c1)N1C[C@@H]2CN(C(=O)c3ccc4[nH]nnc4c3)C[C@@H]2C1 [Example 4.26, (3aS,6aR)-5-(1H-benzotriazole-5-carbonyl)-hexahydro-pyrrolo[3,4-c]pyrrole-2-carboxylic acid 3-fluoro-5-trifluoromethyl-benzyl ester] | 51 |
| O=C(OCc1cc(Cl)cc(OC(F)(F)F)c1)N1C[C@@H]2CN(C(=O)c3ccc4[nH]nnc4c3)C[C@@H]2C1 [Example 4.27, (3aS,6aR)-5-(1H-benzotriazole-5-carbonyl)-hexahydro-pyrrolo[3,4-c]pyrrole-2-carboxylic acid 3-chloro-5-trifluoromethoxy-benzyl ester] | 4 |
| O=C(OCc1ccc(F)c(OC(F)(F)F)c1)N1C[C@@H]2CN(C(=O)c3ccc4[nH]nnc4c3)C[C@@H]2C1 [Example 4.28, (3aS,6aR)-5-(1H-benzotriazole-5-carbonyl)-hexahydro-pyrrolo[3,4-c]pyrrole-2-carboxylic acid 4-fluoro-3-trifluoromethoxy-benzyl ester] | 123 |
| N#Cc1cc(F)cc(COC(=O)N2C[C@@H]3CN(C(=O)c4ccc5[nH]nnc5c4)C[C@@H]3C2)c1 [Example 4.29, (3aR,6aS)-3-cyano-5-fluorobenzyl 5-(1H-benzo[d][1,2,3]triazole-5-carbonyl)hexahydropyrrolo[3,4-c]pyrrole-2(1H)-carboxylate] | 643 |
| COc1cc(Cl)cc(COC(=O)N2C[C@@H]3CN(C(=O)c4ccc5[nH]nnc5c4)C[C@@H]3C2)c1 [Example 4.30, (3aR,6aS)-3-chloro-5-methoxybenzyl 5-(1H-benzo[d][1,2,3]triazole-5-carbonyl)hexahydropyrrolo[3,4-c]pyrrole-2(1H)-carboxylate] | 50 |
| CC1C(COC(=O)N2C[C@@H]3CN(C(=O)c4ccc5[nH]nnc5c4)C[C@@H]3C2)[C@H]2CC[C@@H]1C2 (stereo partly drawn) [Example 4.31, (3aS,6aR)-5-(1H-benzotriazole-5-carbonyl)-hexahydro-pyrrolo[3,4-c]pyrrole-2-carboxylic acid (1S,4R)-3-methyl-bicyclo[2.2.1]hept-2-ylmethyl ester] | 1820 |
| O=C(OCC1C[C@H]2CC[C@@H]1C2)N1C[C@@H]2CN(C(=O)c3ccc4[nH]nnc4c3)C[C@@H]2C1 (stereo partly drawn) [Example 4.32, (3aS,6aR)-5-(1H-benzotriazole-5-carbonyl)-hexahydro-pyrrolo[3,4-c]pyrrole-2-carboxylic acid (1R,4S)-1-bicyclo[2.2.1]hept-2-ylmethyl ester] | 3850 |
| O=C(NCc1cnn[nH]1)[C@H]1C[C@@H]2CN(C(=O)OCc3cc(Cl)cc(Cl)c3)C[C@@H]2C1 [Example 4.33, (3aR,5s,6aS)-5-[(3H-[1,2,3]triazol-4-ylmethyl)-carbamoyl]-hexahydro-cyclopenta[c]pyrrole-2-carboxylic acid 3,5-dichloro-benzyl ester] | 36 |
| CS(=O)(=O)c1cc(Cl)cc(COC(=O)N2C[C@@H]3CN(C(=O)N4CCc5[nH]nnc5C4)C[C@H]3C2)c1 [Example 4.34, (3aS,6aS)-5-(1,4,6,7-tetrahydro-[1,2,3]triazolo[4,5-c]pyridine-5-carbonyl)-hexahydro-pyrrolo[3,4-c]pyrrole-2-carboxylic acid 3-chloro-5-methanesulfonyl-benzyl ester] | 19 |
